Numbers after ± are expanded uncertainties.
Assay: molar heat capacity at constant pressure; xn = mol fraction of the nth substance listed
Settings: 100 kPa, Liquid, Small sample (50 mg) DSC

O=C(CO)[C@@H](O)[C@H](O)[C@H](O)CO [D-fructose] + C[N+](C)(C)CCO.[Cl-]
x2 = 0.67
Settings	molar heat capacity at constant pressure [J/K/mol]
298.15 K	311.5 ± 7.6
300.65 K	313.8 ± 7.7
303.15 K	316.7 ± 7.8
305.65 K	319.4 ± 7.8
308.15 K	322 ± 7.9
310.65 K	324.2 ± 7.9
313.15 K	326.2 ± 8
315.65 K	328.3 ± 8
318.15 K	330.5 ± 8.1
320.65 K	332.6 ± 8.2
323.15 K	334.1 ± 8.2
325.65 K	334.9 ± 8.2
328.15 K	335.8 ± 8.2
330.65 K	336.1 ± 8.2
333.15 K	335.8 ± 8.2
335.65 K	335.7 ± 8.2
338.15 K	335.2 ± 8.2
340.65 K	334.7 ± 8.2
343.15 K	335.2 ± 8.2
345.65 K	335.8 ± 8.2
348.15 K	336.6 ± 8.2
350.65 K	337.7 ± 8.3
353.15 K	340.1 ± 8.3

C[N+](C)(C)CCO.[Cl-] [choline chloride] + O=C[C@H](O)[C@@H](O)[C@H](O)[C@H](O)CO
x1 = 0.67
Settings	molar heat capacity at constant pressure [J/K/mol]
298.15 K	327.5 ± 8
300.65 K	329.1 ± 8.1
303.15 K	330.7 ± 8.1
305.65 K	332.4 ± 8.1
308.15 K	334.5 ± 8.2
310.65 K	336.7 ± 8.3
313.15 K	338.6 ± 8.3
315.65 K	340.6 ± 8.3
318.15 K	342.5 ± 8.4
320.65 K	344.5 ± 8.4
323.15 K	346 ± 8.5
325.65 K	347.2 ± 8.5
328.15 K	348.4 ± 8.5
330.65 K	349.5 ± 8.6
333.15 K	350.6 ± 8.6
335.65 K	350.9 ± 8.6
338.15 K	351.4 ± 8.6
340.65 K	352 ± 8.6
343.15 K	352.6 ± 8.6
345.65 K	353.8 ± 8.7
348.15 K	354.2 ± 8.7
350.65 K	354.4 ± 8.7
353.15 K	356.3 ± 8.7

C[N+](C)(C)CCO.[Cl-] [choline chloride] + Oc1ccccc1
x1 = 0.25
Settings	molar heat capacity at constant pressure [J/K/mol]
298.15 K	219.3 ± 5.4
300.65 K	220.3 ± 5.4
303.15 K	221.2 ± 5.4
305.65 K	222.3 ± 5.4
308.15 K	223.3 ± 5.5
310.65 K	224.2 ± 5.5
313.15 K	225.1 ± 5.5
315.65 K	225.8 ± 5.5
318.15 K	226.6 ± 5.6
320.65 K	227.1 ± 5.6
323.15 K	227.9 ± 5.6
325.65 K	228.6 ± 5.6
328.15 K	229.3 ± 5.6
330.65 K	230.2 ± 5.6
333.15 K	231.1 ± 5.7
335.65 K	231.9 ± 5.7
338.15 K	232.6 ± 5.7
340.65 K	233.1 ± 5.7
343.15 K	233.5 ± 5.7
345.65 K	234.3 ± 5.7
348.15 K	234.5 ± 5.7
350.65 K	235 ± 5.8
353.15 K	236.8 ± 5.8

O=C(O)CC(O)(CC(=O)O)C(=O)O [citric acid] + C[N+](C)(C)CCO.[Cl-]
x2 = 0.33
Settings	molar heat capacity at constant pressure [J/K/mol]
298.15 K	422 ± 10
300.65 K	422.9 ± 10
303.15 K	424 ± 10
305.65 K	425.2 ± 10
308.15 K	426.1 ± 10
310.65 K	427.2 ± 10
313.15 K	428.7 ± 10
315.65 K	429.8 ± 10
318.15 K	430.6 ± 10
320.65 K	431.9 ± 11
323.15 K	433 ± 11
325.65 K	433.5 ± 11
328.15 K	435.4 ± 11
330.65 K	436.7 ± 11
333.15 K	437.5 ± 11
335.65 K	438.6 ± 11
338.15 K	439.7 ± 11
340.65 K	440.6 ± 11
343.15 K	442.1 ± 11
345.65 K	446.1 ± 11
348.15 K	447.2 ± 11
350.65 K	446.8 ± 11
353.15 K	449.4 ± 11

O=C(O)C(=O)O [ethanedioic acid] + C[N+](C)(C)CCO.[Cl-]
x2 = 0.33
Settings	molar heat capacity at constant pressure [J/K/mol]
298.15 K	270.8 ± 6.6
300.65 K	271.8 ± 6.7
303.15 K	272.1 ± 6.7
305.65 K	272.7 ± 6.7
308.15 K	273.6 ± 6.7
310.65 K	274.6 ± 6.7
313.15 K	275.4 ± 6.7
315.65 K	276.3 ± 6.8
318.15 K	276.8 ± 6.8
320.65 K	277 ± 6.8
323.15 K	277.1 ± 6.8
325.65 K	277.4 ± 6.8
328.15 K	277.8 ± 6.8
330.65 K	278.3 ± 6.8
333.15 K	278.7 ± 6.8
335.65 K	279.6 ± 6.8
338.15 K	280 ± 6.9
340.65 K	280.6 ± 6.9
343.15 K	281.2 ± 6.9
345.65 K	281.7 ± 6.9
348.15 K	281.9 ± 6.9
350.65 K	282.2 ± 6.9
353.15 K	282.9 ± 6.9

C[P+](c1ccccc1)(c1ccccc1)c1ccccc1.[Br-] [methyltriphenylphosphonium bromide] + O=C(O)CC(=O)O
x1 = 0.4
Settings	molar heat capacity at constant pressure [J/K/mol]
298.15 K	336.9 ± 8.3
300.65 K	338 ± 8.3
303.15 K	339.2 ± 8.3
305.65 K	340 ± 8.3
308.15 K	341 ± 8.4
310.65 K	342.1 ± 8.4
313.15 K	343.1 ± 8.4
315.65 K	343.9 ± 8.4
318.15 K	345.2 ± 8.5
320.65 K	346 ± 8.5
323.15 K	346.6 ± 8.5
325.65 K	347.4 ± 8.5
328.15 K	348.4 ± 8.5
330.65 K	350.1 ± 8.6
333.15 K	350.3 ± 8.6
335.65 K	350.7 ± 8.6
338.15 K	351.3 ± 8.6
340.65 K	351.5 ± 8.6
343.15 K	351.9 ± 8.6
345.65 K	352.1 ± 8.6
348.15 K	352.5 ± 8.6
350.65 K	354 ± 8.7
353.15 K	354.2 ± 8.7

C[P+](c1ccccc1)(c1ccccc1)c1ccccc1.[Br-] [methyltriphenylphosphonium bromide] + OCC(O)CO
x1 = 0.25
Settings	molar heat capacity at constant pressure [J/K/mol]
298.15 K	328.5 ± 8
300.65 K	329.6 ± 8.1
303.15 K	330.5 ± 8.1
305.65 K	331.6 ± 8.1
308.15 K	332.7 ± 8.2
310.65 K	333.7 ± 8.2
313.15 K	334.8 ± 8.2
315.65 K	335.8 ± 8.2
318.15 K	336.5 ± 8.2
320.65 K	338.1 ± 8.3
323.15 K	339.4 ± 8.3
325.65 K	339.6 ± 8.3
328.15 K	340.8 ± 8.3
330.65 K	341.8 ± 8.4
333.15 K	342.6 ± 8.4
335.65 K	343.5 ± 8.4
338.15 K	344.6 ± 8.4
340.65 K	345.7 ± 8.5
343.15 K	346.7 ± 8.5
345.65 K	347.8 ± 8.5
348.15 K	347.9 ± 8.5
350.65 K	348.3 ± 8.5
353.15 K	350.2 ± 8.6

C[P+](c1ccccc1)(c1ccccc1)c1ccccc1.[Br-] [methyltriphenylphosphonium bromide] + OCCO
x1 = 0.2
Settings	molar heat capacity at constant pressure [J/K/mol]
298.15 K	237.6 ± 5.8
300.65 K	238.6 ± 5.8
303.15 K	239.4 ± 5.9
305.65 K	240.8 ± 5.9
308.15 K	241.6 ± 5.9
310.65 K	242.4 ± 5.9
313.15 K	243.4 ± 6
315.65 K	244.5 ± 6
318.15 K	245.2 ± 6
320.65 K	246.1 ± 6
323.15 K	247.2 ± 6.1
325.65 K	247.9 ± 6.1
328.15 K	248.9 ± 6.1
330.65 K	249.8 ± 6.1
333.15 K	250.8 ± 6.1
335.65 K	251.8 ± 6.2
338.15 K	252.7 ± 6.2
340.65 K	253.5 ± 6.2
343.15 K	254.3 ± 6.2
345.65 K	255 ± 6.2
348.15 K	255.5 ± 6.3
350.65 K	255 ± 6.2
353.15 K	256.7 ± 6.3

O=C(O)CC(=O)O [propanedioic acid] + CCCC[N+](CCCC)(CCCC)CCCC.[Cl-]
x2 = 0.25
Settings	molar heat capacity at constant pressure [J/K/mol]
298.2 K	299.8 ± 7.4
300.7 K	302.6 ± 7.4
303.2 K	305.7 ± 7.5
305.7 K	309.4 ± 7.6
308.2 K	313.3 ± 7.7
310.7 K	316.9 ± 7.8
313.2 K	320.6 ± 7.9
315.7 K	323.7 ± 7.9
318.2 K	324.9 ± 8
320.7 K	328.8 ± 8.1
323.2 K	333.3 ± 8.2
325.7 K	335.9 ± 8.2
328.2 K	337.5 ± 8.3
330.7 K	339.2 ± 8.3
333.2 K	339.5 ± 8.3
335.7 K	340 ± 8.3
338.2 K	340.2 ± 8.3
340.7 K	340.6 ± 8.3
343.2 K	341.1 ± 8.4
345.7 K	341.2 ± 8.4
348.2 K	341.7 ± 8.4
350.7 K	342 ± 8.4
353.2 K	342.8 ± 8.4

O=C(O)CC(=O)O [propanedioic acid] + C[N+](C)(C)CCO.[Cl-]
x2 = 0.5
Settings	molar heat capacity at constant pressure [J/K/mol]
298.15 K	226.9 ± 5.6
300.65 K	227.6 ± 5.6
303.15 K	228.3 ± 5.6
305.65 K	228.8 ± 5.6
308.15 K	229.4 ± 5.6
310.65 K	230.2 ± 5.6
313.15 K	230.6 ± 5.6
315.65 K	231.1 ± 5.7
318.15 K	231.7 ± 5.7
320.65 K	232.3 ± 5.7
323.15 K	232.7 ± 5.7
325.65 K	233.2 ± 5.7
328.15 K	233.8 ± 5.7
330.65 K	234.3 ± 5.7
333.15 K	234.9 ± 5.8
335.65 K	235.8 ± 5.8
338.15 K	237 ± 5.8
340.65 K	238 ± 5.8
343.15 K	238.4 ± 5.8
345.65 K	238.9 ± 5.9
348.15 K	239.5 ± 5.9
350.65 K	239.9 ± 5.9
353.15 K	240.8 ± 5.9

CCCC[N+](CCCC)(CCCC)CCCC.[Cl-] [tetrabutylammonium chloride] + NC(N)=O
x1 = 0.8
Settings	molar heat capacity at constant pressure [J/K/mol]
308.2 K	590 ± 14
310.7 K	593 ± 14
313.2 K	598 ± 15
315.7 K	601.2 ± 15
318.2 K	602.6 ± 15
320.7 K	600.6 ± 15
323.2 K	601.5 ± 15
325.7 K	602.9 ± 15
328.2 K	601.7 ± 15
330.7 K	603 ± 15
333.2 K	604.9 ± 15
335.7 K	605.1 ± 15
338.2 K	603.2 ± 15
340.7 K	604 ± 15
343.2 K	604.4 ± 15
345.7 K	605.2 ± 15
348.2 K	604.8 ± 15
350.7 K	605.4 ± 15
353.2 K	605.9 ± 15
